What follows are compounds tested against T1, sPHEX (Homo sapiens, UniProt P78562) (assay: sPHEX inhibitor IC50 determination using a fluorogenic substrate (Abz-GFSDYK-Dnp, S3)). Conditions: fluorogenic substrate 20 μM, 100 ng sPHEX, pH 6.5.
T1 construct: The soluble form of the metallopeptidase PHEX (sPHEX) was purified to homogeneity; made in house
T1 sequence (P78562 53-749 limits assumed): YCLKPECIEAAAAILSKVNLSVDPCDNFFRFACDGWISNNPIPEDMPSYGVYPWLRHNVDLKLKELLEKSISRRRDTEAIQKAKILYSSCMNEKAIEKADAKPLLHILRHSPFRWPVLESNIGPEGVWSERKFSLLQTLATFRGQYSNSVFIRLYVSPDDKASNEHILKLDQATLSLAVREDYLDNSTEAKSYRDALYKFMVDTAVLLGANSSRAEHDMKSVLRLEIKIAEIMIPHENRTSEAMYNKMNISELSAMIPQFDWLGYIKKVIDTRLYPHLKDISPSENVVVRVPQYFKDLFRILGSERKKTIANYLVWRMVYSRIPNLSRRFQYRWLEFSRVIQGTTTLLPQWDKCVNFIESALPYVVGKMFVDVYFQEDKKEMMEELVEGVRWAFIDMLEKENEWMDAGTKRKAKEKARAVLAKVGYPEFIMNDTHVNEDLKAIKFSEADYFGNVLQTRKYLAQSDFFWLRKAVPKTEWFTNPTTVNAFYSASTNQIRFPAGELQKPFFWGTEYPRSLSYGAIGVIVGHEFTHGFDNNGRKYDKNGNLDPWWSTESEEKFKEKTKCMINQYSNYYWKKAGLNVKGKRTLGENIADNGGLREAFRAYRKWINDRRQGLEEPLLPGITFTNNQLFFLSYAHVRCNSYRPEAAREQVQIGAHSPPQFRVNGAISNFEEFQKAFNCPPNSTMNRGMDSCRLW
Assay type: biochemical
Procedure: The soluble form of the metallopeptidase PHEX (sPHEX) was purified to homogeneity according to the methods of Boileau and Crine (WO 00/50580). sPHEX quantity was measured with the Bradford assay (BioRad) using BSA as a standard.
sPHEX activity was determined using a fluorogenic substrate in which an increase of fluorescence was proportional to substrate conversion to products.
S3 was synthesized at Dr. Gilles Lajoie's laboratories (University of Western Ontario, Canada) by standard solid phase peptide synthesis. The fluorescent reaction product was excited at 320 nm to fluoresce at 420 nm. Fluorescence was recorded at 420 nm every five minutes over a one-hour period on a fluorescence plate reader (Perkin-Elmer, HTS-7000) to calculate the initial rate of the reaction. Typically, the reaction was carried out in 200 μl of buffer M (50 mM Mes(NaOH) pH 6.5, 150 mM NaCl) containing 100 ng of purified sPHEX and 20 μM of fluorigenic substrate to initiate the reaction. Enzymatic activity was determined by subtracting either the initial rate of substrate in buffer (solvolysis), or the typical reaction rate in which 5 mM EDTA was added prior to initiating the reaction.
sPHEX inhibitor IC50 determinations were done using the tested inhibitor at various concentrations coming from a serial dilution (usually ranging from 10^−3 M to 10^−12 M) in the reaction described above. IC50 values were calculated using the iterative four parameters non-linear regression formula from the GraphPad™ software (Prism).

Compound	IC50 [nM]
COC(=O)[C@H](Cc1c[nH]c2ccccc12)NC(=O)[C@H](CC(=O)O)NC(=O)CS [Example 117, N-[2-(1H-indol-3-yl)-methoxycarbonyl-etjyl]-3-(2-mercapto-acetylamino)-succinamic acid]	2600
O=C(O)C[C@H](NC(=O)[C@@H](S)CC1CCCCC1)C(=O)N[C@@H](Cc1c[nH]c2ccccc12)C(=O)O [Example 102, N-[1-Carboxy-2-(1H-indol-3-yl)-ethyl]-3-(3-cyclohexyl-2-mercapto-propionylamino)-succinamic acid]	20
O=C(O)C[C@H](NC(=O)[C@@H](S)Cc1ccc(OCc2ccccc2)cc1)C(=O)N[C@@H](Cc1c[nH]c2ccccc12)C(=O)O [Example 99, 3-(3-(4-Benzyloxy-phenyl)-2-mercapto-propionylamino)-N-[1-Carboxy-2-(1H-indol-3-yl)-ethyl]-succinamic acid]	8
O=C(O)CC(CC(=O)NO)C(=O)NCCCCc1ccccc1 (stereo not drawn) [Example 134, 4-Hydroxycarbamoyl-3-(4-phenyl-butylcarbamoyl)-butyric acid]	560
O=C(O)CC(CC(=O)NO)C(=O)NCC(c1ccccc1)c1ccccc1 (stereo not drawn) [Example 142, 3-(2,2-Diphenyl-ethylcarbamoyl)-4-hydroxycarbamoyl-butyric acid]	54
O=C(O)C[C@H](NC(=O)[C@@H](S)Cc1ccccc1)C(=O)N[C@@H](Cc1ccc2ccccc2c1)C(=O)O [Example 106, N-(1-Carboxy-2-naphthalen-2-yl-ethyl)-3-(2-mercapto-3-phenylpropionylamino)-succinamic acid]	6
O=C(O)C[C@H](NC(=O)[C@@H](S)Cc1ccccc1)C(=O)N[C@H](CO)Cc1ccccc1 [Example 111, N-(1-Benzyl-2-hydroxy-ethyl)-3-(2-mercapto-3-phenyl-propionylamino)-succinamic acid]	90
CNC(=O)[C@H](Cc1c[nH]c2ccccc12)NC(=O)[C@H](CC(=O)O)NC(=O)CS [Example 115, N-[2-(1H-indol-3-yl)-methylcarbamoyl-ethyl]-3-(2-mercapto-acetylamino)-succinamic acid]	1300
O=C(O)C[C@H](NC(=O)[C@@H](S)Cc1ccccc1)C(=O)NCCc1c[nH]c2ccccc12 [Example 118, N-[2-(1H-indol-3-yl)l-ethyl]-3-(2-mercapto-3-phenyl-propionylamino)-succinamic acid]	140
O=C(O)CC(CC(=O)NO)C(=O)NCCc1ccc(-c2ccc(O)cc2)cc1 (stereo not drawn) [Example 140, 3-[2-(4′-Hydroxy-biphenyl-4-yl)-ethylcarbamoyl]4-hydroxycarbamoyl-butyric acid]	360
O=C(O)C[C@H](NC(=O)[C@@H](S)Cc1ccccc1)C(=O)N[C@@H](CO)C(=O)O [Example 107, N-(1-Carboxy-2-hydroxy-ethyl)-3-(2-mercapto-3-phenyl-propionylamino)-succinamic acid]	170
O=C(O)CC(CC(=O)NO)C(=O)NCc1ccc(-c2ccccc2)cc1 (stereo not drawn) [Example 150, 3-[(Biphenyl-4-ylmethyl)-carbamoyl]-4-hydroxycarbamoyl-butyric acid]	270
CCCC[C@H](S)C(=O)N[C@@H](CC(=O)O)C(=O)N[C@@H](Cc1c[nH]c2ccccc12)C(=O)O [Example 95, N-[1-Carboxy-2-(1H-indol-3-yl)-ethyl]-3-(2-mercapto-hexanoylamino)-succinamic acid]	7
O=C(O)CC(CC(=O)NO)C(=O)NCCCCCO (stereo not drawn) [Example 148, 4-Hydroxycarbamoyl-3-(5-hydroxy-pentylcarbamoyl)-butyric acid]	1700
CC(C)C[C@H](S)C(=O)N[C@@H](CC(=O)O)C(=O)N[C@@H](Cc1c[nH]c2ccccc12)C(=O)O [Example 91, N-[1-Carboxy-2-(1H-indol-3-yl)-ethyl]-3-(2-mercapto-4-methyl-pentanoylamino)-succinamic acid]	94
O=C(O)C[C@H](NC(=O)[C@@H](S)Cc1ccccc1)C(=O)N[C@@H](Cc1ccc(O)cc1)C(=O)O [Example 108, N-[1-Carboxy-2-(4-hydroxy-phenyl)-ethyl]-3-(2-mercapto-3-phenyl-propionylamino)-succinamic acid]	7
O=C(O)CC(CCC(=O)NO)C(=O)NCCc1ccc(-c2ccccc2)cc1 (stereo not drawn) [Example 152, 3-(2-Biphenyl-4-yl-ethylcarbamoyl)-5-hydroxycarbamoyl-pentanoic acid]	1300
O=C(O)CC(CC(=O)O)C(=O)NCCc1ccc2ccccc2c1 [Example 169, 3-(2-Naphthalen-2-yl-ethylcarbamoyl)-pentanedioic acid]	19000

Other lines, results leading:

IC50 [nM]	Compound
11	O=C(O)C[C@H](NC(=O)[C@@H](S)Cc1ccccc1)C(=O)N[C@@H](Cc1c[nH]c2ccccc12)C(=O)O [Example 89, N-[1-Carboxy-2-(1H-indol-3-yl)-ethyl]-3-(2-mercapto-3-phenyl-propionylamino)-succinamic acid]
6	O=C(O)C[C@H](NC(=O)[C@@H](S)Cc1ccc(F)cc1)C(=O)N[C@@H](Cc1c[nH]c2ccccc12)C(=O)O [Example 100, N-[1-Carboxy-2-(1H-indol-3-yl)-ethyl]-3-[3-(4-fluoro-phenyl)-2-mercapto-propionylamino]-succinamic acid]
15	O=C(O)C[C@H](NC(=O)[C@@H](S)Cc1ccc2ccccc2c1)C(=O)N[C@@H](Cc1c[nH]c2ccccc12)C(=O)O [Example 104, N-[1-Carboxy-2-(1H-indol-3-yl)-ethyl]-3-(2-mercapto-3-naphthalen-2-yl-propionylamino]-succinamic acid]
3	O=C(O)C[C@H](NC(=O)[C@@H](S)c1ccccc1)C(=O)N[C@@H](Cc1c[nH]c2ccccc12)C(=O)O [Example 97, N-[1-Carboxy-2-(1H-indol-3-yl)-ethyl]-3-(2-mercapto-2-phenyl-acetylamino)-succinamic acid]
22	O=C(O)C[C@H](NC(=O)[C@@H](S)Cc1c[nH]c2ccccc12)C(=O)N[C@@H](Cc1c[nH]c2ccccc12)C(=O)O [Example 103, N-[1-Carboxy-2-(1H-indol-3-yl)-ethyl]-3-[3-(1H-indol-3-yl)-2-mercapto-propionylamino]-succinamic acid]
600	O=C(O)C[C@H](NC(=O)CS)C(=O)N[C@@H](Cc1c[nH]c2ccccc12)C(=O)O [Example 87, N-[1-Carboxy-2-(1H-indol-3-yl)-ethyl]-3-(2-mercapto-acetylamino)-succinamic acid]
4	O=C(O)C[C@H](NC(=O)[C@@H](S)Cc1ccccc1)C(=O)N[C@@H](Cc1c[nH]c2ccccc12)C(=O)N[C@@H](CO)C(=O)O [Example 116, N-[1-(1-Carboxy-2-hydroxy-ethylcarbamoyl)-2-(1H-indol-3-yl)-ethyl]-3-(2-mercapto-3-phenyl-propionylamino)-succinamic acid]
68	C[C@H](S)C(=O)N[C@@H](CC(=O)O)C(=O)N[C@@H](Cc1c[nH]c2ccccc12)C(=O)O [Example 90, N-[1-Carboxy-2-(1H-indol-3-yl)-ethyl]-3-(2-mercapto-propionylamino)-succinamic acid]
9700	O=C(O)C[C@H](NC(CCc1ccccc1)P(=O)(O)O)C(=O)N[C@@H](Cc1c[nH]c2ccccc12)C(=O)O (stereo partly drawn) [Example 162, N-[1-carboxy-2-(1H-indol-3-yl)-ethyl]-3-(3-phenyl-1-phosphono-propylamino)-succinic acid]
48	O=C(O)C[C@H](NC(=O)[C@@H](S)CO)C(=O)N[C@@H](Cc1c[nH]c2ccccc12)C(=O)O [Example 93, N-[1-Carboxy-2-(1H-indol-3-yl)-ethyl]-3-(3-hydroxy-2-mercapto-propionylamino)-succinamic acid]
320	O=C(O)CC[C@H](NC(=O)[C@@H](S)Cc1ccccc1)C(=O)N[C@@H](Cc1c[nH]c2ccccc12)C(=O)O [Example 114]
4	O=C(O)C[C@H](NC(=O)[C@@H](S)CCc1ccccc1)C(=O)N[C@@H](Cc1c[nH]c2ccccc12)C(=O)O [Example 96, N-[1-Carboxy-2-(1H-indol-3-yl)-ethyl]-3-(2-mercapto-4-phenyl-butyrylamino)-succinamic acid]

Reference: patent publication US20060135480A1, “Derivatives of succinic and glutaric acids and analogs thereof useful as inhibitors of phex” (Enobia Pharma, priority 2002, published 2006)
